Reference: PubChem BioAssay (NCI)
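At the GI50, growth is halved. TGI: total growth inhibition.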

What was measured:
Assay in all cases: growth of human tumour cells (NCI), 384-well format
IGROV1 ovarian = system: IGROV1 ovarian
OVCAR-4 ovarian = system: OVCAR-4 ovarian
A549 NSCLC = system: A549 NSCLC
HCT-116 colon = system: HCT-116 colon
OVCAR-5 ovarian = system: OVCAR-5 ovarian
DU-145 prostate = system: DU-145 prostate
SR leukemia = system: SR leukemia
HS 578T breast = system: HS 578T breast
A498 renal = system: A498 renal
KM12 colon = system: KM12 colon
UACC-62 melanoma = system: UACC-62 melanoma
MCF7 breast = system: MCF7 breast
COLO 205 colon = system: COLO 205 colon
SNB-19 CNS = system: SNB-19 CNS
HCT-15 colon = system: HCT-15 colon
HL-60(TB) leukemia = system: HL-60(TB) leukemia
SNB-75 CNS = system: SNB-75 CNS
NCI-H460 NSCLC = system: NCI-H460 NSCLC
PC-3 prostate = system: PC-3 prostate
NCI-H23 lung = system: NCI-H23 lung
M14 melanoma = system: M14 melanoma
HCC-2998 colon = system: HCC-2998 colon
SK-MEL-28 melanoma = system: SK-MEL-28 melanoma
MDA-MB-435 melanoma = system: MDA-MB-435 melanoma
RXF 393 renal = system: RXF 393 renal
HT29 colon = system: HT29 colon
SK-OV-3 ovarian = system: SK-OV-3 ovarian
NCI-H226 lung = system: NCI-H226 lung
SF-295 CNS = system: SF-295 CNS
U251 glioblastoma = system: U251 glioblastoma
MALME-3M melanoma = system: MALME-3M melanoma
ACHN renal = system: ACHN renal
MDA-MB-468 breast = system: MDA-MB-468 breast
SK-MEL-5 melanoma = system: SK-MEL-5 melanoma
RPMI-8226 leukemia = system: RPMI-8226 leukemia
T-47D breast = system: T-47D breast
MOLT-4 leukemia = system: MOLT-4 leukemia
EKVX NSCLC = system: EKVX NSCLC
HOP-92 NSCLC = system: HOP-92 NSCLC
NCI-H522 lung = system: NCI-H522 lung
SF-539 CNS = system: SF-539 CNS
LOX IMVI melanoma = system: LOX IMVI melanoma
OVCAR-8 ovarian = system: OVCAR-8 ovarian
SF-268 CNS = system: SF-268 CNS
NCI-H322M lung = system: NCI-H322M lung
NCI/ADR-RES ovarian = system: NCI/ADR-RES ovarian
CAKI-1 renal = system: CAKI-1 renal
OVCAR-3 ovarian = system: OVCAR-3 ovarian
HOP-62 NSCLC = system: HOP-62 NSCLC
SN12C renal = system: SN12C renal
TK-10 renal = system: TK-10 renal
UACC-257 melanoma = system: UACC-257 melanoma
MDA-MB-231 breast = system: MDA-MB-231 breast
BT-549 breast = system: BT-549 breast

CC(C)C[C@H](NC(=O)[C@@H](NC(=O)c1cccc(-c2ccccc2)n1)[C@@H](C)O)B(O)O showed a GI50 (IGROV1 ovarian) of 560 nM, a TGI (IGROV1 ovarian) of 2120 nM and a GI50 (OVCAR-4 ovarian) of 210 nM. It also gave a TGI (OVCAR-4 ovarian) of 569 nM, a GI50 (A549 NSCLC) of 1080 nM and a TGI (A549 NSCLC) of 16300 nM. For the same compound, the GI50 (HCT-116 colon) was 160 nM, the TGI (HCT-116 colon) was 347 nM and the GI50 (OVCAR-5 ovarian) was 260 nM. For the same compound, the TGI (OVCAR-5 ovarian) was 940 nM, the GI50 (DU-145 prostate) was 432 nM and the TGI (DU-145 prostate) was 1760 nM. For the same compound, the TGI (SR leukemia) was 221 nM, the GI50 (HS 578T breast) was 143 nM and the TGI (HS 578T breast) was 294 nM. For the same compound, the GI50 (A498 renal) was 312 nM, the TGI (A498 renal) was 1850 nM and the GI50 (KM12 colon) was 346 nM. For the same compound, the TGI (KM12 colon) was 1280 nM, the GI50 (UACC-62 melanoma) was 291 nM and the TGI (UACC-62 melanoma) was 1160 nM. The GI50 (MCF7 breast) was 129 nM, the TGI (MCF7 breast) was 10700 nM and the GI50 (COLO 205 colon) was 442 nM. It also gave a TGI (COLO 205 colon) of over 100000 nM, a GI50 (SNB-19 CNS) of 234 nM and a TGI (SNB-19 CNS) of 870 nM. For the same compound, the GI50 (HCT-15 colon) was 556 nM, the TGI (HCT-15 colon) was 1880 nM and the GI50 (HL-60(TB) leukemia) was 77.6 nM. For the same compound, the TGI (HL-60(TB) leukemia) was 198 nM, the GI50 (SNB-75 CNS) was 297 nM and the TGI (SNB-75 CNS) was 1260 nM. It also gave a GI50 (NCI-H460 NSCLC) of 426 nM, a TGI (NCI-H460 NSCLC) of 1550 nM and a GI50 (PC-3 prostate) of 257 nM. The TGI (PC-3 prostate) was 685 nM, the GI50 (NCI-H23 lung) was 292 nM and the TGI (NCI-H23 lung) was 1190 nM. For the same compound, the GI50 (M14 melanoma) was 163 nM, the TGI (M14 melanoma) was 305 nM and the GI50 (HCC-2998 colon) was 141 nM. The TGI (HCC-2998 colon) was 371 nM, the GI50 (SK-MEL-28 melanoma) was 89.1 nM and the TGI (SK-MEL-28 melanoma) was 240 nM. For the same compound, the GI50 (MDA-MB-435 melanoma) was 163 nM, the TGI (MDA-MB-435 melanoma) was 305 nM and the GI50 (RXF 393 renal) was 147 nM. It also gave a TGI (RXF 393 renal) of 297 nM, a GI50 (HT29 colon) of 127 nM and a TGI (HT29 colon) of 274 nM. The GI50 (SK-OV-3 ovarian) was 560 nM, the TGI (SK-OV-3 ovarian) was 11000 nM and the GI50 (NCI-H226 lung) was 11.4 nM. For the same compound, the TGI (NCI-H226 lung) was 103 nM, the GI50 (SF-295 CNS) was 374 nM and the TGI (SF-295 CNS) was 1540 nM. It also gave a GI50 (U251 glioblastoma) of 420 nM, a TGI (U251 glioblastoma) of 1940 nM and a GI50 (MALME-3M melanoma) of 104 nM. The TGI (MALME-3M melanoma) was 239 nM, the GI50 (ACHN renal) was 239 nM and the TGI (ACHN renal) was 957 nM. It also gave a GI50 (MDA-MB-468 breast) of 168 nM, a TGI (MDA-MB-468 breast) of 405 nM and a GI50 (SK-MEL-5 melanoma) of 129 nM. The TGI (SK-MEL-5 melanoma) was 285 nM, the GI50 (RPMI-8226 leukemia) was 11.2 nM and the TGI (RPMI-8226 leukemia) was 26 nM. It also gave a GI50 (T-47D breast) of 224 nM, a TGI (T-47D breast) of 783 nM and a GI50 (MOLT-4 leukemia) of 21.8 nM. It also gave a TGI (MOLT-4 leukemia) of 56.4 nM, a GI50 (EKVX NSCLC) of 523 nM and a TGI (EKVX NSCLC) of 2850 nM. The GI50 (HOP-92 NSCLC) was 432 nM, the TGI (HOP-92 NSCLC) was 1890 nM and the GI50 (NCI-H522 lung) was 122 nM. It also gave a TGI (NCI-H522 lung) of 249 nM, a GI50 (SF-539 CNS) of 165 nM and a TGI (SF-539 CNS) of 308 nM. For the same compound, the GI50 (LOX IMVI melanoma) was 216 nM, the TGI (LOX IMVI melanoma) was 507 nM and the GI50 (OVCAR-8 ovarian) was 374 nM. For the same compound, the TGI (OVCAR-8 ovarian) was 1520 nM, the GI50 (SF-268 CNS) was 266 nM and the TGI (SF-268 CNS) was 787 nM. It also gave a GI50 (NCI-H322M lung) of 2030 nM, a TGI (NCI-H322M lung) of 11800 nM and a GI50 (NCI/ADR-RES ovarian) of 11100 nM. The TGI (NCI/ADR-RES ovarian) was 24500 nM, the GI50 (CAKI-1 renal) was 492 nM and the TGI (CAKI-1 renal) was 19000 nM. It also gave a GI50 (OVCAR-3 ovarian) of 103 nM, a TGI (OVCAR-3 ovarian) of 228 nM and a GI50 (HOP-62 NSCLC) of 237 nM. It also gave a TGI (HOP-62 NSCLC) of 765 nM, a GI50 (SN12C renal) of 123 nM and a TGI (SN12C renal) of 422 nM. It also gave a GI50 (TK-10 renal) of 157 nM, a TGI (TK-10 renal) of 418 nM and a GI50 (UACC-257 melanoma) of 116 nM. The TGI (UACC-257 melanoma) was 245 nM, the GI50 (MDA-MB-231 breast) was 327 nM and the TGI (MDA-MB-231 breast) was 1280 nM. The GI50 (BT-549 breast) was 139 nM and the TGI (BT-549 breast) was 288 nM.
